Laboratory results: patent publication US9284366B2, “Anti-acetylated huntingtin antibodies and uses therof” (The General Hospital Corporation, priority 2006, dated 2016)

Key:
[1] = test system: total Htt and acetyl-Htt level in Neuro2a cells; experiment: Proteasome and autophagy inhibitors in Neuro2a cells transfected with Htt590-97Q (western blot); type: cell-based; conditions: lactacystin 10 μM or 3-methyladenine 10 mM for 12 hrs
Experimental: Cell Culture and Transfection. Neuro2a, STHdh^Q7/Q7, and COS-7 cells were transfected using Lipofectamine 2000. For HDAC inhibition, TSA (1 μM) and NAM (5 mM) were applied 6 hrs and 16 hrs, respectively, prior to harvest. Unless indicated otherwise, cells were harvested 24 hrs after transfection. For the experiments with proteasome and autophagy inhibitors, Neuro2a cells were treated with lactacystin (10 μM) or 3-methyladenine (10 mM) for 12 hrs. For assessment of LC3 conversion, immortalized striatal cells (STHdh^Q7/Q7) were cultured as described (29), transfected for 48 hrs and treated with TSA (4 μM) and NAM (5 mM) 15 hrs prior to harvest.
To examine which of these pathways may be responsible for clearance of acetylated Htt polypeptide, Neuro2a cells were transfected with Htt590-97Q and treated with inhibitors of proteasome or autophagy. […] In order to further examine whether acetylated Htt polypeptide leads to activation of macroautophagy, LC3 conversion was assessed (17, 18). LC3, a mammalian homologue of yeast Atg8, is a diffusely distributed protein that upon activation by mammalian Atg7 undergoes posttranslational modification resulting in the product LC3-II, which firmly associates with the autophagosomal membrane. The amount of LC3-II, which migrates faster than LC3-I on SDS-PAGE, provides a reliable measure of autophagic activity (17). In order to assess autophagic activity in relation to Htt acetylation, immortalized striatal cells (STHdh^Q7/Q7) were transfected with Htt590-97Q or acetylation-resistant Htt590-97Q-KR, treated with TSA and NAM and analyzed by western blotting with anti-LC3 antibody (FIG. 3B).

C. elegans neurons = conditions: dose-dependent manner; cited from earlier work
Drosophila model of HD = conditions: pharmacological inhibition of HDAC; cited from earlier work

CC(=O)N[C@@H](CSC(=O)[C@]1([C@@H](O)C(C)C)NC(=O)[C@H](C)[C@@H]1O)C(=O)O [lactacystin]
acetyl-Htt level [1]: no significant effect | total Htt level [1]: no significant effect

CC(/C=C/C(=O)NO)=C\[C@@H](C)C(=O)c1ccc(N(C)C)cc1 [TSA, trichostatin A]
degeneration of C. elegans neurons induced by mutant Htt (C. elegans neurons): reduced the degeneration

Cn1cnc(N)c2ncnc1-2 [3-methyladenine]
acetyl-Htt level [1]: accumulation

O=C(CCCCCCC(=O)Nc1ccccc1)NO [SAHA, Suberoylanilide hydroxamic acid]
lethality and degeneration in Drosophila model of HD (Drosophila model of HD): rescue the lethality and degeneration
